The source of these data is patent US10517889B2, “Modulators of SMAD7 expression” (Ionis Pharmaceuticals, Inc., priority 2017, dated 2019).

Strand notation (5' to 3'): a small letter for the sugar, then the base; units joined by * are phosphorothioate-linked, units joined directly phosphodiester-linked; [ ] holds rarer units or linkages, { } end groups; capitals alone tell only the bases. k = constrained ethyl (cEt); [5mC] = 5-methylcytosine; d = 2'-deoxy (DNA)

One data set relates to human SMAD7 mRNA. Description: Antisense inhibition of human SMAD7 mRNA expression in Hep3B cells by 3-10-3 cEt gapmers, 10,000 nM, electroporation (Example 2). The format is cell-based. The conditions noted are these: Hep3B cells, 10,000 nM antisense oligonucleotide, electroporation, approximately 24 hours, RT-PCR primer probe set RTS5062, relative to untreated control cells. The procedure, abridged: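 SMAD7 mRNA was measured by real-time PCR (RTS5062) with RiboGreen total-RNA normalization, about 24 h after 10,000 nM gapmer was delivered by electroporation into Hep3B cells at 20,000 per well. Gapmers were 16-mer 3-10-3 cEt, fully phosphorothioate; values are % inhibition versus untreated controls.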
Regarding “799970 (kT*k[5mC]*k[5mC]*dT*d[5mC]*dA*dG*dG*dA*dA*dA*d[5mC]*dA*k[5mC]*kA*kG; antisense) [compound 799970]”, the % Inhibition (as a rule, the share of the control response that was lost under treatment) is 43%.
For the substance “799971 (kG*kT*kA*dA*dA*dA*d[5mC]*dT*dT*dG*d[5mC]*dT*dG*kA*kG*kA; antisense) [compound 799971]”, the “% Inhibition” value is listed as 31%.
The same measure, in the same setting: to “799972 (k[5mC]*kA*k[5mC]*dA*dA*dG*dG*dA*d[5mC]*d[5mC]*d[5mC]*dT*dT*kG*k[5mC]*kT; antisense) [compound 799972]” belongs 0%; to “799973 (kA*kT*kA*dA*dT*dT*d[5mC]*dA*d[5mC]*dA*dA*dG*dG*kA*k[5mC]*k[5mC]; antisense) [compound 799973]”, 0%; to “799974 (kG*kA*k[5mC]*dT*d[5mC]*d[5mC]*dA*dG*dT*dG*d[5mC]*d[5mC]*dA*kA*kT*k[5mC]; antisense) [compound 799974]”, 23%.
The same measure, in the same setting: to “799975 (kT*k[5mC]*kT*dT*d[5mC]*dA*dG*dG*dG*dA*d[5mC]*dA*dA*kG*k[5mC]*k[5mC]; antisense) [compound 799975]” belongs 38%.
Same read-out and setting: to “799976 (kT*k[5mC]*kA*dA*dA*dG*dG*dT*dT*dA*dA*d[5mC]*dA*kG*k[5mC]*kA; antisense) [compound 799976]” belongs 34%; to “799977 (kG*kG*kA*d[5mC]*dA*dT*d[5mC]*dT*d[5mC]*dA*dA*dA*dG*kG*kT*kT; antisense) [compound 799977]”, 36%.
Turning to “799978 (k[5mC]*kT*k[5mC]*d[5mC]*dA*d[5mC]*dA*dA*d[5mC]*dG*dG*dA*d[5mC]*kA*kT*k[5mC]; antisense) [compound 799978]”, the “% Inhibition” value is 24%.
Turning to “799979 (kA*kA*k[5mC]*dG*dG*dT*dT*dG*d[5mC]*d[5mC]*dT*d[5mC]*dA*kT*k[5mC]*k[5mC]; antisense) [compound 799979]”, the “% Inhibition” value is 38%.
Consider “799990 (kT*kT*kG*d[5mC]*dA*d[5mC]*d[5mC]*dT*dG*dG*d[5mC]*dA*dA*k[5mC]*k[5mC]*kT; antisense) [compound 799990]”, for which the “% Inhibition” value came out at 0%.
The same measure, in the same setting: to “799991 (kG*kG*k[5mC]*d[5mC]*dG*d[5mC]*d[5mC]*dT*d[5mC]*d[5mC]*dT*dG*d[5mC]*kA*kG*kG; antisense) [compound 799991]” belongs 19%; to “799992 (kG*kG*k[5mC]*dA*d[5mC]*dG*dG*d[5mC]*d[5mC]*dG*d[5mC]*d[5mC]*dT*k[5mC]*k[5mC]*kT; antisense) [compound 799992]”, 9%.
Same read-out and setting: to “799993 (kA*kT*kA*dA*dT*dG*dA*dA*dG*dT*dG*dA*dT*kA*kT*kT; antisense) [compound 799993]” belongs 0%.
Consider “799994 (kA*k[5mC]*kT*dT*dG*dG*dA*dT*dA*dA*dT*dG*dA*kA*kG*kT; antisense) [compound 799994]”, for which the “% Inhibition” value is on record as 2%.
Still for that read-out and setting: to “799995 (k[5mC]*kT*kG*dT*dG*dA*dG*dG*d[5mC]*dA*d[5mC]*dT*dT*kG*kG*kA; antisense) [compound 799995]” belongs 63%.
Same read-out and setting: to “799996 (kG*kA*k[5mC]*d[5mC]*d[5mC]*dA*d[5mC]*dG*dG*dT*dT*dA*dA*kA*kT*kG; antisense) [compound 799996]” belongs 36%; to “799997 (kA*kT*kG*dA*d[5mC]*d[5mC]*d[5mC]*dA*d[5mC]*dG*dG*dT*dT*kA*kA*kA; antisense) [compound 799997]”, 14%; to “799998 (k[5mC]*kA*kG*dT*dA*dA*dA*dG*dA*d[5mC]*dA*dT*dG*kA*kG*k[5mC]; antisense) [compound 799998]”, 45%.
For the substance “799999 (kT*kT*kA*dG*dG*dA*dA*d[5mC]*dA*dA*dG*dG*dG*k[5mC]*kA*kA; antisense) [compound 799999]”, the “% Inhibition” value turned out to be 23%.
Same read-out and setting: to “800011 (k[5mC]*kT*kT*d[5mC]*dA*dG*d[5mC]*d[5mC]*dT*dG*dT*dG*dT*kT*kT*kG; antisense) [compound 800011]” belongs 21%; to “800012 (kG*kA*kG*dG*dA*d[5mC]*dT*dT*d[5mC]*dA*dG*d[5mC]*d[5mC]*kT*kG*kT; antisense) [compound 800012]”, 49%; to “800013 (kA*kA*kA*dG*dG*dA*dG*dA*dG*dG*dA*d[5mC]*dT*kT*k[5mC]*kA; antisense) [compound 800013]”, 56%.
Same read-out and setting: to “800014 (kT*kA*kA*dA*dG*d[5mC]*dA*dT*dA*dA*dA*dA*dT*k[5mC]*k[5mC]*kT; antisense) [compound 800014]” belongs 21%.
On the same count and under the same terms, to “800015 (k[5mC]*kT*kT*dT*dA*dA*dG*dG*dT*dG*dT*dT*dG*k[5mC]*k[5mC]*k[5mC]; antisense) [compound 800015]” belongs 26%; to “800016 (kG*kT*kT*d[5mC]*dA*dT*dT*dT*dT*dA*dA*dA*dG*k[5mC]*kA*kT; antisense) [compound 800016]”, 32%.
On to “800017 (kT*kA*kA*dA*dA*d[5mC]*dA*dG*dT*dA*dT*dG*dT*kG*kT*kT; antisense) [compound 800017]”, for which the “% Inhibition” value turned out to be 11%.
The same measure, in the same setting: to “800018 (kA*kA*kA*dA*d[5mC]*dT*d[5mC]*dA*d[5mC]*dA*dG*dT*d[5mC]*k[5mC]*kT*kT; antisense) [compound 800018]” belongs 51%.

The same data set, now with this note: Hep3B cells, electroporation with 10,000 nM antisense oligonucleotide, approximately 24 hours, SMAD7 mRNA by RT-PCR (RTS5062), relative to untreated control cells.
Regarding “799968 (k[5mC]*kT*kG*d[5mC]*dG*dA*dG*dT*dT*dA*dA*dT*d[5mC]*kA*kG*kA; antisense) [compound 799968]”, the “% Inhibition” value came to 27%.
The same measure, in the same setting: to “799969 (kT*kT*kA*dG*dA*dG*dT*dG*dA*dG*dT*dT*d[5mC]*k[5mC]*kT*k[5mC]; antisense) [compound 799969]” belongs 46%; to “799981 (kA*k[5mC]*k[5mC]*dA*dA*d[5mC]*dG*dG*dT*dT*dG*d[5mC]*d[5mC]*kT*k[5mC]*kA; antisense) [compound 799981]”, 14%; to “799982 (k[5mC]*kA*k[5mC]*d[5mC]*dA*d[5mC]*dG*d[5mC]*d[5mC]*dT*d[5mC]*dG*d[5mC]*kT*kA*kA; antisense) [compound 799982]”, 0%.
Same read-out and setting: to “799983 (k[5mC]*kA*kT*d[5mC]*dA*d[5mC]*d[5mC]*dA*d[5mC]*dG*d[5mC]*d[5mC]*dT*k[5mC]*kG*k[5mC]; antisense) [compound 799983]” belongs 15%; to “799984 (kA*k[5mC]*kA*dT*d[5mC]*dA*d[5mC]*d[5mC]*dA*d[5mC]*dG*d[5mC]*d[5mC]*kT*k[5mC]*kG; antisense) [compound 799984]”, 61%; to “799985 (kA*kA*k[5mC]*dA*dT*d[5mC]*dA*d[5mC]*d[5mC]*dA*d[5mC]*dG*d[5mC]*k[5mC]*kT*k[5mC]; antisense) [compound 799985]”, 53%.
The same measure, in the same setting: to “799986 (kA*kA*kA*d[5mC]*dA*dT*d[5mC]*dA*d[5mC]*d[5mC]*dA*d[5mC]*dG*k[5mC]*k[5mC]*kT; antisense) [compound 799986]” belongs 44%.
“799987 (k[5mC]*kA*kA*dA*d[5mC]*dA*dT*d[5mC]*dA*d[5mC]*d[5mC]*dA*d[5mC]*kG*k[5mC]*k[5mC]; antisense) [compound 799987]”: the “% Inhibition” value is reported as 57%.
Same read-out and setting: to “799988 (kG*k[5mC]*kG*d[5mC]*dA*dA*dA*d[5mC]*dA*dT*d[5mC]*dA*d[5mC]*k[5mC]*kA*k[5mC]; antisense) [compound 799988]” belongs 32%.
On the same count and under the same terms, to “799989 (kT*kG*k[5mC]*dA*d[5mC]*d[5mC]*dT*dG*dG*d[5mC]*dA*dA*d[5mC]*k[5mC]*kT*kG; antisense) [compound 799989]” belongs 57%.
Still for that read-out and setting: to “800000 (k[5mC]*kA*kT*dT*dT*dA*dG*dG*dA*dA*d[5mC]*dA*dA*kG*kG*kG; antisense) [compound 800000]” belongs 37%; to “800001 (k[5mC]*kA*kA*dG*dA*dT*dT*d[5mC]*d[5mC]*dA*dT*dT*dT*kA*kG*kG; antisense) [compound 800001]”, 2%.
“800002 (k[5mC]*k[5mC]*k[5mC]*d[5mC]*dA*dA*dG*dA*dT*dT*d[5mC]*d[5mC]*dA*kT*kT*kT; antisense) [compound 800002]”: the “% Inhibition” value was 0%.
Turning to “800003 (kA*kG*kA*dA*d[5mC]*dA*d[5mC]*dG*dG*dG*d[5mC]*dA*d[5mC]*kG*k[5mC]*kG; antisense) [compound 800003]”, the “% Inhibition” value is recorded as 24%.
Same read-out and setting: to “800004 (kT*kT*kT*dT*dA*dA*dT*dT*dT*dG*dA*dA*dG*kG*k[5mC]*kG; antisense) [compound 800004]” belongs 8%; to “800005 (k[5mC]*k[5mC]*kG*d[5mC]*dA*d[5mC]*d[5mC]*d[5mC]*dA*dG*dA*d[5mC]*d[5mC]*k[5mC]*k[5mC]*kT; antisense) [compound 800005]”, 27%; to “800006 (k[5mC]*kA*kA*dG*dG*dA*dA*dT*dT*dT*dT*d[5mC]*d[5mC]*k[5mC]*k[5mC]*kT; antisense) [compound 800006]”, 41%.
Still for that read-out and setting: to “800007 (k[5mC]*kT*k[5mC]*dA*dA*dG*dG*d[5mC]*d[5mC]*dA*d[5mC]*dA*dT*kT*kT*kT; antisense) [compound 800007]” belongs 23%; to “800008 (kG*kA*kA*d[5mC]*dA*dG*dA*d[5mC]*d[5mC]*dA*dG*dA*d[5mC]*k[5mC]*k[5mC]*kT; antisense) [compound 800008]”, 40%.
On the same count and under the same terms, to “800009 (kT*kG*k[5mC]*dT*d[5mC]*dA*dT*dG*dA*dA*dT*dG*dA*kA*k[5mC]*kA; antisense) [compound 800009]” belongs 51%.
